Laboratory results from EP4001279A1, “NOVEL SPIROPYRROLIDINE DERIVED ANTIVIRAL AGENTS” (Enanta Pharmaceuticals, Inc., priority 2020, dated 2022).

Test system: 229E human corona virus (hCoV)
Test: 229E live virus assay (CPE, ATPlite readout in MRC-5 cells)
Assay type: cell-based, hCoV-229E
Details: MOI 0.05, ATPlite readout, run in duplicate
[1] = Human coronavirus 229E, MRC5, hCoV-229E live virus

Structure (SMILES) | EC50 [1] | EC50 (hCoV-229E live virus)
CC(C)C[C@@H](C(=O)N1C[C@]2(C[C@H]1C#N)C(=O)Nc1ccccc12)N(C)C(=O)c1cc2cccnc2cc1OC(F)F [Example 253] | < 0.1 µM | –
CC(C)C[C@@H](C(=O)N1C[C@]2(C[C@H]1C#N)C(=O)Nc1ccccc12)N(C)C(=O)c1cc2ccc(=O)[nH]c2cc1OC1CC1 [Example 254] | < 0.1 µM | –
CC(C)C[C@@H](C(=O)N1C[C@]2(C[C@H]1C#N)C(=O)Nc1ccccc12)N(C)C(=O)c1cc(Cl)c2[nH]c(C3CC3)nc2c1 [Example 256] | < 0.1 µM | –
CC(C)C[C@@H](C(=O)N1C[C@]2(C[C@H]1C#N)C(=O)Nc1ccccc12)N(C)C(=O)c1ccc2nc(-c3ccccc3)ccc2c1 [Example 257] | < 0.1 µM | –
COc1cc(C(=O)N(C)[C@@H](CC(C)C)C(=O)N2C[C@]3(C[C@H]2C#N)C(=O)Nc2ccccc23)nc2ccccc12 [Example 258] | < 0.1 µM | –
Cc1cc(C)c2ccc(C(=O)N(C)[C@@H](CC(C)C)C(=O)N3C[C@]4(C[C@H]3C#N)C(=O)Nc3ccccc34)nc2c1O [Example 259] | < 0.1 µM | –
CC(C)C[C@@H](C(=O)N1C[C@]2(C[C@H]1C#N)C(=O)Nc1ccccc12)N(C)C(=O)c1cnc2ccccc2c1O [Example 260] | < 0.1 µM | –
CC(C)C[C@@H](C(=O)N1C[C@]2(C[C@H]1C#N)C(=O)Nc1ccccc12)N(C)C(=O)c1ccccc1-c1ccccc1 [Example 261] | 0.1 to 1 µM | –
CC(C)C[C@@H](C(=O)N1C[C@]2(C[C@H]1C#N)C(=O)Nc1ccccc12)N(C)C(=O)c1cc(-c2ccccc2)ccc1Cl [Example 262] | 0.1 to 1 µM | –
CC(C)C[C@@H](C(=O)N1C[C@]2(C[C@H]1C#N)C(=O)Nc1ccccc12)N(C)C(=O)c1cccc(-c2ccc(C(F)(F)F)cc2)c1 [Example 263] | < 0.1 µM | –
CC(C)C[C@@H](C(=O)N1C[C@]2(C[C@H]1C#N)C(=O)Nc1ccccc12)N(C)C(=O)c1cccc(-c2ccccc2F)c1 [Example 264] | < 0.1 µM | –
CC(C)C[C@@H](C(=O)N1C[C@]2(C[C@H]1C#N)C(=O)Nc1ccccc12)N(C)C(=O)c1cccc(-c2ccc(C#N)cc2)c1 [Example 265] | 0.1 to 1 µM | –
CC(C)C[C@@H](C(=O)N1C[C@]2(C[C@H]1C#N)C(=O)Nc1ccccc12)N(C)C(=O)c1cccc(-c2cccc(Cl)c2)c1 [Example 266] | < 0.1 µM | –
CC(C)C[C@@H](C(=O)N1C[C@]2(C[C@H]1C#N)C(=O)Nc1ccccc12)N(C)C(=O)c1cn(-c2ccccn2)nn1 [Example 267] | < 0.1 µM | –
CC(C)C[C@@H](C(=O)N1C[C@]2(C[C@H]1C#N)C(=O)Nc1ccccc12)N(C)C(=O)c1cnc2c(C(F)(F)F)cccc2c1 [Example 268] | < 0.1 µM | –
CC(C)C[C@@H](C(=O)N1C[C@]2(C[C@H]1C#N)C(=O)Nc1ccccc12)N(C)C(=O)c1nc2c(F)cc(F)cc2[nH]1 [Example 269] | < 0.1 µM | –
CC(C)C[C@@H](C(=O)N1C[C@]2(C[C@H]1C#N)C(=O)Nc1ccccc12)N(C)C(=O)c1nc2c(F)cc(F)c(F)c2[nH]1 [Example 270] | < 0.1 µM | –
CC(C)C[C@@H](C(=O)N1C[C@]2(C[C@H]1C#N)C(=O)Nc1ccccc12)N(C)C(=O)c1ccc2c(Cl)ccnc2c1 [Example 271] | < 0.1 µM | –
CC(C)C[C@@H](C(=O)N1C[C@]2(C[C@H]1C#N)C(=O)Nc1ccccc12)N(C)C(=O)c1ccc(F)c(-c2ccccc2)c1 [Example 272] | < 0.1 µM | –
CC(C)C[C@@H](C(=O)N1C[C@]2(C[C@H]1C#N)C(=O)Nc1ccccc12)N(C)C(=O)c1nc2c(F)c(F)c(F)cc2[nH]1 [Example 273] | < 0.1 µM | –

Structure (SMILES) | EC50 [1] | EC50 (hCoV-229E live virus)
CC(C)C[C@@H](C(=O)N1C[C@]2(C[C@H]1C#N)C(=O)Nc1ccccc12)N(C)C(=O)c1ccc2nccc(Br)c2c1 [Example 274] | < 0.1 µM | –
CC(C)C[C@@H](C(=O)N1C[C@]2(C[C@H]1C#N)C(=O)Nc1ccccc12)N(C)C(=O)c1cc2cccnc2cc1F [Example 275] | < 0.1 µM | –
CC(C)C[C@@H](C(=O)N1C[C@]2(C[C@H]1C#N)C(=O)Nc1ccccc12)N(C)C(=O)c1ccc2c(=O)[nH]ccc2c1 [Example 276] | < 0.1 µM | –
CC(C)C[C@@H](C(=O)N1C[C@]2(C[C@H]1C#N)C(=O)Nc1ccccc12)N(C)C(=O)c1ccc(-c2ccccc2)cc1 [Example 277] | < 0.1 µM | –
CC(C)C[C@@H](C(=O)N1C[C@]2(C[C@H]1C#N)C(=O)Nc1ccccc12)N(C)C(=O)c1cccc(-c2ccccc2C#N)c1 [Example 278] | < 0.1 µM | –
CC(C)C[C@@H](C(=O)N1C[C@]2(C[C@H]1C#N)C(=O)Nc1ccccc12)N(C)C(=O)c1cccc(-c2cccc(C#N)c2)c1 [Example 279] | < 0.1 µM | –
CC(C)C[C@@H](C(=O)N1C[C@]2(C[C@H]1C#N)C(=O)Nc1ccccc12)N(C)C(=O)c1nc2ccccc2n1C [Example 282] | < 0.1 µM | –
CC(C)C[C@@H](C(=O)N1C[C@]2(C[C@H]1C#N)C(=O)Nc1ccccc12)N(C)C(=O)c1cn(-c2ccc(F)cc2)nn1 [Example 283] | < 0.1 µM | –
CC(C)C[C@@H](C(=O)N1C[C@]2(C[C@H]1C#N)C(=O)Nc1ccccc12)N(C)C(=O)c1cn(-c2ccc(Cl)cc2)nn1 [Example 284] | < 0.1 µM | –
CC(C)C[C@@H](C(=O)N1C[C@]2(C[C@H]1C#N)C(=O)Nc1ccccc12)N(C)C(=O)c1ccc2cccnc2c1O [Example 285] | < 0.1 µM | –
CC(C)C[C@@H](C(=O)N1C[C@]2(C[C@H]1C#N)C(=O)Nc1ccccc12)N(C)C(=O)c1cn(-c2cccc(Cl)c2)nn1 [Example 286] | < 0.1 µM | –
CC(C)C[C@@H](C(=O)N1C[C@]2(C[C@H]1C#N)C(=O)Nc1ccccc12)N(C)C(=O)c1n[nH]c(-c2ccccc2)n1 [Example 288] | < 0.1 µM | –
CC(C)C[C@@H](C(=O)N1C[C@]2(C[C@H]1C#N)C(=O)Nc1ccccc12)N(C)C(=O)c1cc(F)c2nn(C)cc2c1 [Example 309] | < 0.1 µM | –
CC(C)C[C@@H](C(=O)N1C[C@]2(C[C@H]1C#N)C(=O)Nc1ccccc12)N(C)C(=O)c1cc(OC2CC2)c2nc(Cl)ccc2c1 [Example 310] | 0.1 to 1 µM | –
CC(C)C[C@@H](C(=O)N1C[C@]2(C[C@H]1C#N)C(=O)Nc1ccccc12)N(C)C(=O)c1cc(F)c2nn(C3CC3)cc2c1 [Example 311] | < 0.1 µM | –
CC(C)C[C@@H](C(=O)N1C[C@]2(C[C@H]1C#N)C(=O)Nc1ccccc12)N(C)C(=O)c1cc(OC2CC2)c2ncccc2c1 [Example 312] | 0.1 to 1 µM | –
CC(C)C[C@@H](C(=O)N1C[C@]2(C[C@H]1C#N)C(=O)Nc1ccccc12)N(C)C(=O)c1cc(OC2CC2)n2nc(C3CC3)c(C(=O)C(F)(F)F)c2c1 [Example 313] | > 1 µM | –
CC(C)C[C@@H](C(=O)N1C[C@]2(C[C@H]1C#N)C(=O)Nc1ccccc12)N(C)C(=O)c1cc(F)c2nc(C3CC3)c(C(=O)C(F)(F)F)n2c1 [Example 314] | < 0.1 µM | –
CC(C)C[C@@H](C(=O)N1C[C@]2(C[C@H]1C#N)C(=O)Nc1ccccc12)N(C)C(=O)c1cc(OC2CC2)n2nc(C3CC3)cc2c1 [Example 315] | 0.1 to 1 µM | –
CC(C)C[C@@H](C(=O)N1C[C@]2(C[C@H]1C#N)C(=O)Nc1ccccc12)N(C)C(=O)c1cc(Cl)c2nn(C3CC3)cc2c1 [Example 316] | < 0.1 µM | –

Structure (SMILES) | EC50 [1] | EC50 (hCoV-229E live virus)
CC(C)C[C@@H](C(=O)N1C[C@]2(C[C@H]1C#N)C(=O)Nc1ccccc12)N(C)C(=O)c1cc(OC2CC2)c2nc(C3CC3)sc2c1 [Example 317] | 0.1 to 1 µM | –
CC(C)C[C@@H](C(=O)N1C[C@]2(C[C@H]1C#N)C(=O)Nc1ccccc12)N(C)C(=O)c1cc(F)c2nc(C3CC3)cn2c1 [Example 318] | < 0.1 µM | –
COc1cc(C(=O)N(C)[C@@H](CC(C)C)C(=O)N2C[C@]3(C[C@H]2C#N)C(=O)Nc2ccccc23)cc2cn(C3(C)CC3)nc12 [Example 319] | < 0.1 µM | –
COc1cc(C(=O)N(C)[C@@H](CC(C)C)C(=O)N2C[C@]3(C[C@H]2C#N)C(=O)Nc2ccccc23)cc2cn(C3CCC3)nc12 [Example 320] | 0.1 to 1 µM | –
Cc1ccc2cc(C(=O)N(C)[C@@H](CC(C)C)C(=O)N3C[C@]4(C[C@H]3C#N)C(=O)Nc3ccccc34)cc(OC3CC3)c2n1 [Example 321] | 0.1 to 1 µM | –
CC(C)C[C@@H](C(=O)N1C[C@]2(C[C@H]1C#N)C(=O)Nc1ccccc12)N(C)C(=O)c1cc(OC(F)(F)F)c2ncccc2c1 [Example 322] | < 0.1 µM | –
Cc1cc2cc(C(=O)N(C)[C@@H](CC(C)C)C(=O)N3C[C@]4(C[C@H]3C#N)C(=O)Nc3ccccc34)cc(OC3CC3)c2nc1C [Example 323] | 0.1 to 1 µM | –
CC(C)C[C@@H](C(=O)N1C[C@]2(C[C@H]1C#N)C(=O)Nc1ccccc12)N(C)C(=O)c1cc(OC2CC2)c2ncc(C3CC3)cc2c1 [Example 324] | 0.1 to 1 µM | –
Cc1cc(F)c(C(=O)N(C)[C@@H](CC(C)C)C(=O)N2C[C@]3(C[C@H]2C#N)C(=O)Nc2ccccc23)cc1-c1cnn(C2CC2)c1 [Example 342] | 0.1 to 1 µM | –
CC(C)C[C@@H](C(=O)N1C[C@]2(C[C@H]1C#N)C(=O)Nc1ccccc12)N(C)C(=O)c1ccc(OC2CC2)c(-c2cccnc2)c1 [Example 343] | 0.1 to 1 µM | –
CC(C)C[C@@H](C(=O)N1C[C@]2(C[C@H]1C#N)C(=O)Nc1ccccc12)N(C)C(=O)[C@H]1CCN(C(=O)OC(C)(C)C)C1 [Example 344] | 0.1 to 1 µM | –
CC(C)C[C@@H](C(=O)N1C[C@]2(C[C@H]1C#N)C(=O)Nc1ccccc12)N(C)C(=O)[C@@H]1CCN(C(=O)OC(C)(C)C)C1 [Example 345] | – | < 0.1 µM
CC(C)C[C@@H](C(=O)N1C[C@]2(C[C@H]1C#N)C(=O)Nc1ccccc12)N(C)C(=O)[C@@H](c1cnn(C)c1)C(C)C [Example 348] | 0.1 to 1 µM | –
CC(C)C[C@@H](C(=O)N1C[C@]2(C[C@H]1C#N)C(=O)Nc1ccccc12)N(C)C(=O)[C@H](c1cnn(C)c1)C(C)C [Example 349] | 0.1 to 1 µM | –
CC(C)C[C@@H](C(=O)N1C[C@]2(C[C@H]1C#N)C(=O)Nc1ccccc12)N(C)C(=O)[C@@H](c1cn(C)nn1)C(C)C [Example 350] | 0.1 to 1 µM | –
CC(C)C[C@@H](C(=O)N1C[C@]2(C[C@H]1C#N)C(=O)Nc1ccccc12)N(C)C(=O)[C@H](c1cn(C)nn1)C(C)C [Example 351] | 0.1 to 1 µM | –
CC(C)C[C@@H](C(=O)N1C[C@]2(C[C@H]1C#N)C(=O)Nc1ccccc12)N(C)C(=O)c1cnn(C(C)(C)C)c1 [Example 352] | < 0.1 µM | –
CC(C)C[C@@H](C(=O)N1C[C@]2(C[C@H]1C#N)C(=O)Nc1ccccc12)N(C)C(=O)c1cnn(-c2ccccc2C(F)(F)F)c1 [Example 353] | < 0.1 µM | –
